# Measured values: patent publication US7745411B2, “Methods for promoting erythropoiesis” (University of Southern California, priority 1998, dated 2010)
# “Also recorded” adds a separate entry of the source.
# Assay: Unspecified test of effectiveness of AII fragments
# Details: test not specified
row,Substance,"effectiveness (tested, effective or not)"
1,Tyr-Ile-His-Pro-Phe (YIHPF; printed: Tyr-Ile-His-Pro-Phe) [AII(4-8)],not to be effective; also recorded: ineffective in repeated tests
2,His-Pro-Phe (HPF) [AII(6-8)],not to be effective
